Laboratory results taken from patent publication US20250276999A1, “PEPTIDES FOR PROMOTING HAIR FOLLICLE NEOGENESIS, AND PREVENTION/MITIGATION OF UNTOWARD EFFECTS OF RADIATION TREATMENT” (Trustees of Tufts College, priority 2022, published 2025).
“Also recorded” adds a separate entry of the source.

Test system: X-ray irradiated mice
Assay: Radiation dermatitis murine model (thoracic X-ray irradiation)
Format: in vivo, C57BL/6 mice
[1] = 16.5 Gy, s.c. days 2, 7, 10 post-irradiation, TSN6 5 μg/day, HGF 3.3 μg/day, vs vehicle
[2] = skin 83 days post-irradiation, radiation alone

Protocol: Sham irradiated mice without wounds were used as controls for radiation dermatitis, and treated identically as irradiated mice. Wounded mice, without radiation, were used as controls for combined injury.
Animals were irradiated in the RS2000 small animal irradiator. The RS2000 provides a cone-shaped radiation field with irradiation at 12.39-40.50 cm from the X-ray source. For dose measurements, irradiation was performed with the following settings: 160 kVp, 25 mA, 90 s irradiation time and 0.3 mm Cu beam filtration. The approximate HVL provided by the manufacturer was 0.62 mm Cu. […] A custom lead shield was placed on the floor of the irradiator, with the mouse thoracic region ˜43.75 cm from the X-ray source. Dose measurements were conducted twice to account for set-up error and reproducibility. […] The dose rate was reported for each aperture position 1-4 as an absorbed dose rate to water (ADRW, Gy/min) and the two repeated measurements were averaged.
Mice (12-14 weeks of age) were anesthetized using inhaled anesthesia (isoflurane), and the fur was clipped on the dorsal side of the thoracic region. […] Animals were then anesthetized with injected anesthesia (150 mg/kg ketamine/18 mg/kg xylazine) and placed in Lucite jigs for exposure to 16.5 Gy thoracic irradiation in the RS2000 X-ray irradiator as previously described [19].
TSN6 peptide (5 μg/day in 50 μl sterile saline) or hepatocyte growth factor (HGF; 3.3 μg/day in 50 μl sterile saline) or vehicle (sterile saline, 50 μl) were injected subcutaneously on days 2, 7 and 10 post-irradiation. Injections were made caudal, adjacent to the irradiated or irradiated/wounded area.
Animals were monitored daily for 85 days post-irradiation for both radiation dermatitis and combined injury models. Radiation dermatitis was separately scored for hair loss, erythema, scale, and ulceration. Scoring for erythema, scale and ulceration were previously described: 0=none; 1=minimal; 2=mild; 3=moderate; 4=marked [19]. Because all animals underwent fur clipping prior to irradiation and wounding, scoring for hair loss was determined as failure to regrow hair in the irradiated areas: 0=none; 1=minimal; 2=mild; 3=moderate; 4=marked. Animals were photographed for the measurement of wounds and for dermatitis scoring. […] Weight was measured as an indication of overall health.

HSPDIQLQKGLTFEPIQIK [TSN6, 19 amino acid peptide derived from multimerin-1, Coiled coil domain]
combined scores of radiation skin effects (16.5 Gy, TSN6 5 μg/day s.c. days 2, 7, 10 (FIG. 5E)): marked reduction
erythema score [1]: mitigated
hair loss score [1]: mitigated
radiation dermatitis (overall measures) [1]: mitigated; also recorded: Mitigation of radiation dermatitis
scale score [1]: mitigated
adipose layer in H&E histological sections [2]: preservation of the adipose layer
epidermal thickening in H&E histological sections [2]: reduction of the epidermal thickening
hair follicles within the irradiated area (histology) [2]: restoration of hair follicles
